Here are results for 20 compounds from patent US20110166176A1, “COMPOUNDS AND COMPOSITIONS AS MODULATORS OF GPR119 ACTIVITY” (IRM LLC, priority 2008, published 2011).

For the experiment, the target named is T1, human GPR119 (Homo sapiens, UniProt Q8TDV5).
T1 construct: expressed in transfected cells
T1 sequence (Q8TDV5 1-335): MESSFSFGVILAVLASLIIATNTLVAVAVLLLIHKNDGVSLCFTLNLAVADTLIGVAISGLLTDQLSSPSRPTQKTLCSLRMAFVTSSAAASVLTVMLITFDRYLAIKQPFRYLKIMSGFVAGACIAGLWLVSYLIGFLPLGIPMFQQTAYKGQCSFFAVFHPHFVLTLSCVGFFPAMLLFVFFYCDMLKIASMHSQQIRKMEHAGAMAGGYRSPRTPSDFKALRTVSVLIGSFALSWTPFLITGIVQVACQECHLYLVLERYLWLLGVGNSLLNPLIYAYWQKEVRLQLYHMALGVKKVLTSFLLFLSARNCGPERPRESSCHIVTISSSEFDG
The experiment in a line: Cyclic AMP assay (HTRF) in stable Flp-In-CHO-hGPR119 cell line. It counts as cell-based. The note with it: Flp-In-CHO-hGPR119 cells, intracellular cAMP, 30 minutes at 37° C., 1 mM IBMX, read-out: CHO-GPR119-HTRF (3158) EC50. The method, then: Flp-In-CHO cells (Invitrogen, Cat. # R758-07) are maintained in Ham's F12 medium supplemented with 10% fetal bovine serum, 1% antibiotic mixture and 2 mM L-glutamine. The cells are transfected with a DNA mixture containing human GPR119 in pcDNA5/FRT vector and the pOG44 vector (1:9) using Fugene6 (Roche), according to the manufacturer's instruction. After 48 hours, the medium is changed to medium supplemented with 400 μg/ml hygromycin B to initiate the selection of stably transfected cells.
To test the activity of compounds of the invention, Flp-In-CHO-hGPR119 cells are harvested and resuspended in DMEM plus 3% lipid-depleted fetal bovine serum. Forth μl of cells are plated in 384 well plates at a density of 15,000 cells/well. IBMX (3-isobutyl-1-methyl-xanthine) is added to the cells to a final concentration of 1 mM, followed by the addition of 500 nl of the compound to be tested. The cells are incubated at 37° C. for 30 minutes. Equal volume (20 μl) of the HTRF reagents, anti-cAMP-Cryptate and cAMP-XL665, are added to the cells. The plates are incubated at room temperature for 1 hour and read on a HTRF reader according to the manufacturer's instruction.
Compounds of Formula I, in free form or in pharmaceutically acceptable salt form, produced a concentration-dependent increase in intracellular cAMP level. […] Specific EC50 data is presented for some of the compounds of the invention in the table, infra.
On the technique in general: Time-resolved FRET reads energy transfer from a long-lived donor to a nearby acceptor.

As usually defined, the EC50 is the concentration needed to bring the measured effect to its halfway point. Turning to `CC(C)OC(=O)N1CCc2cc(O[C@H]3CCN(c4ccc(S(C)(=O)=O)cc4)C3)ccc2C1` [Example 1, (S)-isopropyl 6-(1-(4-(methylsulfonyl)phenyl)pyrrolidin-3-yloxy)-3,4-dihydroisoquinoline-2(1H)-carboxylate], the half-maximal effective concentration (EC50) came to 85 nM. As for `CC(C)OC(=O)N1CCc2cc(O[C@H]3CCN(c4ccc(S(C)(=O)=O)cc4F)C3)ccc2C1` [Example 2, (S)-isopropyl 6-(1-(2-fluoro-4-(methylsulfonyl)phenyl)pyrrolidin-3-yloxy)-3,4-dihydroisoquinoline-2(1H)-carboxylate], the EC50 was 42 nM. Regarding `CC(C)OC(=O)N1CCc2cc(CO[C@H]3CCN(c4ccc(S(C)(=O)=O)cc4)C3)ccc2C1` [Example 3, (S)-isopropyl 6-((1-(4-(methylsulfonyl)phenyl)pyrrolidin-3-yloxy)methyl)-3,4-dihydroisoquinoline-2(1H)-carboxylate], the EC50 is 202 nM. Regarding `CC(C)OC(=O)N1CCc2ccc(CO[C@H]3CCN(c4ccc(S(C)(=O)=O)cc4)C3)cc2C1` [Example 4, (S)-isopropyl 7-((1-(4-(methylsulfonyl)phenyl)pyrrolidin-3-yloxy)methyl)-3,4-dihydroisoquinoline-2(1H)-carboxylate], the concentration for a half-maximal effect (EC50) is 424 nM. For the compound `CNCc1ccc(O[C@H]2CCN(c3ccc(S(C)(=O)=O)cc3)C2)cc1` [Example 5, (S)—N-methyl-1-(4-(1-(4-(methylsulfonyl)phenyl)pyrrolidin-3-yloxy)phenyl)methanamine], the concentration for a half-maximal effect (EC50) came out at 353 nM. For `CNCc1cccc(O[C@H]2CCN(c3ccc(S(C)(=O)=O)cc3)C2)c1` [Example 6, (S)—N-methyl-1-(3-(1-(4-(methylsulfonyl)phenyl)pyrrolidin-3-yloxy)phenyl)methanamine], the EC50 is 319 nM.

`CCN(Cc1ccccc1)Cc1cccc(O[C@H]2CCN(c3ccc(S(C)(=O)=O)cc3)C2)c1` [Example 7]: the 50% effective concentration (EC50) came out at 423 nM. Take `CC(C)N(Cc1ccccc1)Cc1cccc(O[C@H]2CCN(c3ccc(S(C)(=O)=O)cc3)C2)c1` [Example 8]: the concentration giving a half-maximal response (EC50) is 586 nM. As to `CS(=O)(=O)c1ccc(N2CC[C@H](Oc3cccc(CNCc4ccccc4)c3)C2)c(F)c1` [Example 9], the EC50 came out at 2620 nM. Under `CN(Cc1ccccc1)Cc1cccc(O[C@H]2CCN(c3ccc(S(C)(=O)=O)cc3F)C2)c1` [Example 10] stands 259 nM; under `CCN(Cc1ccccc1)Cc1cccc(O[C@H]2CCN(c3ccc(S(C)(=O)=O)cc3F)C2)c1` [Example 11], 356 nM. With `CC(C)N(Cc1ccccc1)Cc1cccc(O[C@H]2CCN(c3ccc(S(C)(=O)=O)cc3F)C2)c1` [Example 12], the EC50 was 33 nM. For the compound `CCCN(Cc1ccccc1)Cc1cccc(O[C@H]2CCN(c3ccc(S(C)(=O)=O)cc3F)C2)c1` [Example 13], the EC50 came out at 730 nM. As to `CCN(Cc1cccc(O[C@H]2CCN(c3ccc(S(C)(=O)=O)cc3)C2)c1)C(=O)OC(C)C` [Example 14, (S)-Isopropyl ethyl(3-(1-(4-(methylsulfonyl)phenyl)pyrrolidin-3-yloxy)benzyl)carbamate], the EC50 was determined as 82 nM. Turning to `CCCN(Cc1cccc(O[C@H]2CCN(c3ccc(S(C)(=O)=O)cc3)C2)c1)C(=O)OC(C)C` [Example 15], the EC50 was found to be 397 nM. Take `CC(C)OC(=O)N(Cc1cccc(O[C@H]2CCN(c3ccc(S(C)(=O)=O)cc3)C2)c1)C(C)C` [Example 16]: the half-maximal effective concentration (EC50) turned out to be 199 nM.

For `CC(C)OC(=O)N(C)Cc1cccc(O[C@H]2CCN(c3ccc(S(C)(=O)=O)cc3)C2)c1` [Example 17], the concentration for a half-maximal effect (EC50) came to 263 nM. On to `CC(C)OC(=O)OCc1cccc(O[C@H]2CCN(c3ccc(S(C)(=O)=O)cc3F)C2)c1` [Example 18, (S)-3-(1-(2-fluoro-4-(methylsulfonyl)phenyl)pyrrolidin-3-yloxy)benzyl isopropyl carbonate], for which the concentration for a half-maximal effect (EC50) was 794 nM.

`CC(C)OC(=O)OCc1ccc(O[C@@H]2CCN(c3ccc(S(C)(=O)=O)cc3F)C2)cc1` [Example 19]: the EC50 was 1020 nM. Consider `CC(C)OC(=O)OCCc1cccc(O[C@@H]2CCN(c3ccc(S(C)(=O)=O)cc3F)C2)c1` [Example 20], for which the EC50 is 515 nM.
